molecular target: T1, Octα2R (α2-adrenergic-like octopamine receptor) (Drosophila melanogaster, UniProt Q9VE32); experiment: aequorin Ca2+ luminescence, inhibition of octopamine response, HEK-293 cells; type: cell-based
T1 sequence (Q9VE32 1-699): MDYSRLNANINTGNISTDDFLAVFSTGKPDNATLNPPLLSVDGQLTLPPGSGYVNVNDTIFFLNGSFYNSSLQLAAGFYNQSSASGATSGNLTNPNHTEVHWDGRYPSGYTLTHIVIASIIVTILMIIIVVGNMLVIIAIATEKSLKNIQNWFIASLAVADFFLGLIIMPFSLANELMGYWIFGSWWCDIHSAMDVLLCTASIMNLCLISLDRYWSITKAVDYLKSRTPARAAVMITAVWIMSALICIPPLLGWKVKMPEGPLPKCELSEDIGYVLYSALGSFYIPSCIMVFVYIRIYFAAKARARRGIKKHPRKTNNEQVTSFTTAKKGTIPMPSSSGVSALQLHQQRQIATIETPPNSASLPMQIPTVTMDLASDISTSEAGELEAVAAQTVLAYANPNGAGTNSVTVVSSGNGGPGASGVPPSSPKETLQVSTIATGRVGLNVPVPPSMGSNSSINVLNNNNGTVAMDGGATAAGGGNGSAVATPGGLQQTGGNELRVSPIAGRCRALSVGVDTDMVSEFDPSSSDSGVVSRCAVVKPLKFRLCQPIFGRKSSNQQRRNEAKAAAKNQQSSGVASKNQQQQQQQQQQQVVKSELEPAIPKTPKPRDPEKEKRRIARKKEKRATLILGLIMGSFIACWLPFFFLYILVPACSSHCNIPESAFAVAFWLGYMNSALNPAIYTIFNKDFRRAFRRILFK

| IC50 [nM] | SMILES |
| --- | --- |
| 93 | Cc1ccc(N(CC2=NCCN2)c2cccc(O)c2)cc1 [PA, phentolamine] |
| 100 | NC1=NCC2c3ccccc3Cc3ccccc3N12 (stereo not drawn) [EP, epinastine] |
| 18000 | COC(=O)[C@@H]1[C@H]2C[C@H]3c4[nH]c5ccccc5c4CCN3C[C@@H]2CC[C@@H]1O [YO, yohimbine] |

From paper PMC9744561 (Genes, Brain, and Behavior, 2022)
